Results taken from the supplement of paper PMC10307832.

Columns and labels:
Experiment in all cases: relative viability (nuclei count vs DMSO), 5 days (fraction); higher = more cells survive
NCI-H522 = system: NCI-H522
Method in brief: (§1)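 Lung cancer cell lines were pin-tool dosed in 1536-well plates on the day after seeding, with either a lone drug or a fixed anchor-drug dose plus five library-drug doses (not always all listed) in √10 steps. Nuclei were counted on 4× images after 5 days. Relative viability is the ratio of treated-well to vehicle-well nuclei counts, with each value a median of duplicate plates.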

NCI-H441 = system: NCI-H441
Method in brief: as §1

HCC-15 = system: HCC-15
Method in brief: as §1

NCI-H2347 = system: NCI-H2347
Method in brief: as §1

NCI-H2023 = system: NCI-H2023
Method in brief: as §1

ABC-1 = system: ABC-1
Method in brief: as §1

NCI-H1793 = system: NCI-H1793
Method in brief: as §1

NCI-H322M = system: NCI-H322M
Method in brief: as §1

NCI-H1734 = system: NCI-H1734
Method in brief: as §1

NCI-H838 = system: NCI-H838
Method in brief: as §1

A-427 = system: A-427
Method in brief: as §1

NCI-H647 = system: NCI-H647
Method in brief: as §1

NCI-H1915 = system: NCI-H1915
Method in brief: as §1

NCI-H358 = system: NCI-H358
Method in brief: as §1

NCI-H2342 = system: NCI-H2342
Method in brief: as §1

NCI-H1944 = system: NCI-H1944
Method in brief: as §1

SW 1573 = system: SW 1573
Method in brief: as §1

LK-2 = system: LK-2
Method in brief: as §1

EPLC-272H = system: EPLC-272H
Method in brief: as §1

RERF-LC-KJ = system: RERF-LC-KJ
Method in brief: as §1

UMC-11 = system: UMC-11
Method in brief: as §1

NCI-H2009 = system: NCI-H2009
Method in brief: as §1

LC-2-ad = system: LC-2-ad
Method in brief: as §1

CCNC(=O)c1noc(-c2cc(C(C)C)c(O)cc2O)c1-c1ccc(CN2CCOCC2)cc1 [Luminespib] + N=C(N)NC(=N)NCCc1ccccc1 [Phenformin] (partner 250 µM)
relative viability (NCI-H522; first compound 0.002 µM): 0.707
relative viability (NCI-H522; first compound 0.006325 µM): 0.657
relative viability (NCI-H522; first compound 0.02 µM): 0.601
relative viability (NCI-H522; first compound 0.06325 µM): 0.546
relative viability (NCI-H522; first compound 0.2 µM): 0.362
relative viability (NCI-H441; first compound 0.002 µM): 0.841
relative viability (NCI-H441; first compound 0.006325 µM): 0.689
relative viability (NCI-H441; first compound 0.02 µM): 0.732
relative viability (NCI-H441; first compound 0.06325 µM): 0.216
relative viability (NCI-H441; first compound 0.2 µM): 0.135
relative viability (HCC-15; first compound 0.002 µM): 0.429
relative viability (HCC-15; first compound 0.006325 µM): 0.405
relative viability (HCC-15; first compound 0.02 µM): 0.311
relative viability (HCC-15; first compound 0.06325 µM): 0.162
relative viability (HCC-15; first compound 0.2 µM): 0.114
relative viability (NCI-H2347; first compound 0.002 µM): 0.406
relative viability (NCI-H2347; first compound 0.006325 µM): 0.269
relative viability (NCI-H2347; first compound 0.02 µM): 0.417
relative viability (NCI-H2347; first compound 0.06325 µM): 0.381
relative viability (NCI-H2347; first compound 0.2 µM): 0.198
relative viability (NCI-H2023; first compound 0.002 µM): 0.39
relative viability (NCI-H2023; first compound 0.006325 µM): 0.376
relative viability (NCI-H2023; first compound 0.02 µM): 0.287
relative viability (NCI-H2023; first compound 0.06325 µM): 0.0664
relative viability (NCI-H2023; first compound 0.2 µM): 0.0658
relative viability (ABC-1; first compound 0.002 µM): 0.223
relative viability (ABC-1; first compound 0.006325 µM): 0.272
relative viability (ABC-1; first compound 0.02 µM): 0.241
relative viability (ABC-1; first compound 0.06325 µM): 0.2
relative viability (ABC-1; first compound 0.2 µM): 0.233
relative viability (NCI-H1793; first compound 0.002 µM): 0.367
relative viability (NCI-H1793; first compound 0.006325 µM): 0.373
relative viability (NCI-H1793; first compound 0.02 µM): 0.151
relative viability (NCI-H1793; first compound 0.06325 µM): 0.102
relative viability (NCI-H1793; first compound 0.2 µM): 0.138
relative viability (NCI-H322M; first compound 0.002 µM): 0.801
relative viability (NCI-H322M; first compound 0.006325 µM): 0.729
relative viability (NCI-H322M; first compound 0.02 µM): 0.717
relative viability (NCI-H322M; first compound 0.06325 µM): 0.287
relative viability (NCI-H322M; first compound 0.2 µM): 0.278
relative viability (NCI-H1734; first compound 0.002 µM): 0.464
relative viability (NCI-H1734; first compound 0.006325 µM): 0.356
relative viability (NCI-H1734; first compound 0.02 µM): 0.3
relative viability (NCI-H1734; first compound 0.06325 µM): 0.103
relative viability (NCI-H1734; first compound 0.2 µM): 0.116
relative viability (NCI-H838; first compound 0.002 µM): 0.664
relative viability (NCI-H838; first compound 0.006325 µM): 0.55
relative viability (NCI-H838; first compound 0.02 µM): 0.257
relative viability (NCI-H838; first compound 0.06325 µM): 0.107
relative viability (NCI-H838; first compound 0.2 µM): 0.114
relative viability (A-427; first compound 0.002 µM): 0.354
relative viability (A-427; first compound 0.006325 µM): 0.377
relative viability (A-427; first compound 0.02 µM): 0.275
relative viability (A-427; first compound 0.06325 µM): 0.101
relative viability (A-427; first compound 0.2 µM): 0.128
relative viability (NCI-H647; first compound 0.002 µM): 0.396
relative viability (NCI-H647; first compound 0.006325 µM): 0.504
relative viability (NCI-H647; first compound 0.02 µM): 0.429
relative viability (NCI-H647; first compound 0.06325 µM): 0.0796
relative viability (NCI-H647; first compound 0.2 µM): 0.0823
relative viability (NCI-H1915; first compound 0.002 µM): 0.361
relative viability (NCI-H1915; first compound 0.006325 µM): 0.352
relative viability (NCI-H1915; first compound 0.02 µM): 0.407
relative viability (NCI-H1915; first compound 0.06325 µM): 0.293
relative viability (NCI-H1915; first compound 0.2 µM): 0.0788
relative viability (NCI-H358; first compound 0.002 µM): 0.348
relative viability (NCI-H358; first compound 0.006325 µM): 0.356
relative viability (NCI-H358; first compound 0.02 µM): 0.152
relative viability (NCI-H358; first compound 0.06325 µM): 0.0546
relative viability (NCI-H358; first compound 0.2 µM): 0.0585
relative viability (NCI-H2342; first compound 0.002 µM): 0.549
relative viability (NCI-H2342; first compound 0.006325 µM): 0.581
relative viability (NCI-H2342; first compound 0.02 µM): 0.454
relative viability (NCI-H2342; first compound 0.06325 µM): 0.606
relative viability (NCI-H2342; first compound 0.2 µM): 0.355
relative viability (NCI-H1944; first compound 0.002 µM): 0.219
relative viability (NCI-H1944; first compound 0.006325 µM): 0.189
relative viability (NCI-H1944; first compound 0.02 µM): 0.205
relative viability (NCI-H1944; first compound 0.06325 µM): 0.112
relative viability (NCI-H1944; first compound 0.2 µM): 0.111
relative viability (SW 1573; first compound 0.002 µM): 0.39
relative viability (SW 1573; first compound 0.006325 µM): 0.339
relative viability (SW 1573; first compound 0.02 µM): 0.262
relative viability (SW 1573; first compound 0.06325 µM): 0.0845
relative viability (SW 1573; first compound 0.2 µM): 0.0847
relative viability (LK-2; first compound 0.002 µM): 0.474
relative viability (LK-2; first compound 0.006325 µM): 0.436
relative viability (LK-2; first compound 0.02 µM): 0.252
relative viability (LK-2; first compound 0.06325 µM): 0.0992
relative viability (LK-2; first compound 0.2 µM): 0.141
relative viability (EPLC-272H; first compound 0.002 µM): 0.307
relative viability (EPLC-272H; first compound 0.006325 µM): 0.291
relative viability (EPLC-272H; first compound 0.06325 µM): 0.271
relative viability (EPLC-272H; first compound 0.2 µM): 0.0832
relative viability (RERF-LC-KJ; first compound 0.002 µM): 0.409
relative viability (RERF-LC-KJ; first compound 0.006325 µM): 0.418
relative viability (RERF-LC-KJ; first compound 0.02 µM): 0.512
relative viability (RERF-LC-KJ; first compound 0.06325 µM): 0.25
relative viability (RERF-LC-KJ; first compound 0.2 µM): 0.238
relative viability (UMC-11; first compound 0.002 µM): 0.346
relative viability (UMC-11; first compound 0.006325 µM): 0.338
relative viability (UMC-11; first compound 0.02 µM): 0.291
relative viability (UMC-11; first compound 0.06325 µM): 0.213
relative viability (UMC-11; first compound 0.2 µM): 0.168
relative viability (NCI-H2009; first compound 0.002 µM): 0.543
relative viability (NCI-H2009; first compound 0.006325 µM): 0.44
relative viability (NCI-H2009; first compound 0.02 µM): 0.487
relative viability (NCI-H2009; first compound 0.06325 µM): 0.0851
relative viability (NCI-H2009; first compound 0.2 µM): 0.103
relative viability (LC-2-ad; first compound 0.002 µM): 0.531
relative viability (LC-2-ad; first compound 0.006325 µM): 0.497
relative viability (LC-2-ad; first compound 0.02 µM): 0.551
relative viability (LC-2-ad; first compound 0.06325 µM): 0.25
relative viability (LC-2-ad; first compound 0.2 µM): 0.231
